Among the data in paper PMC7801115, “Preclinical in vitro screening of newly synthesised amidino substituted benzimidazoles and benzothiazoles” (Journal of Enzyme Inhibition and Medicinal Chemistry, 2021) are melting point and IC50 values, retold here.

Data set [1] deals with A549. Description: BrdU proliferation assay, 2D cell culture. It counts as cell-based. Conditions: Homo sapiens, A549, 2D cell culture, ±SD, N = 2. How it is done: (§1) Cells were grown in 96 well cell star polystyrene plates. 10,000 cells/well were seeded in wells 4 h prior the treatment with different compounds concentrations and incubated for 72 h. A cell viability assay was performed according to the manufacturer’s instruction, using CellTiter 96 aqueous solution, MTS kit (Promega, Madison, WI, USA). After 0.5–2 h of cell incubation with MTS in 2 D cell culture, the plates were read using PE EnVision absorbance at 490 nm. The results for each of tested compounds are reported as growth percentages from two independent concentrations curves compared with the untreated control cells after drug exposure. Since we prefer homogeneous assays (mix and read procedures) and therefore MTS is more practical (one step less than MTT). MTS is more sensitive and accurate in comparison with MTT assay.
(§2) Proliferation assay was performed using Cell Proliferation ELISA, BrdU (Sigma, St. Louis, MO, USA). Briefly, 48 h hours after compound addition, 10 µM of BrdU was added to each well and incubated for following 24 h. After incubation, single cell suspension was made for 3 D cell culture in the new 96 well plate. Plates were centrifuged and supernatants were removed from each plate (for 2 D and 3 D cell culture) followed by 60 min incubation at 60° C. The rest of the proliferation assay was performed according to the manufacturer instructions.
(§3) Calculation of IC50 data, curves and QC analysis is made by using Excel tools and GraphPadPrism software (La Jolla, CA), v. 5.03. In brief, individual concentration–effect curves are generated by plotting the logarithm of the tested concentration of tested compounds (X) versus corresponding percent inhibition values (Y) using least squares (ordinary) fit. […] QC criteria parameters (Z', S:B, R2, HillSlope) were checked for every IC50 curve.

The test system of data set [2] is A549. As to the kind of experiment: BrdU proliferation assay, 3D cell culture. The format is cell-based. The settings on record: Homo sapiens, A549, 3D cell culture, ±SD, N = 2. How it is done:
(§4) Cells were grown in 96 well Perfecta 3 D hanging drop plates 5000 cell/well for 4 days until spheres were formed (and checked under the microscope). After sphere formation cells were treated with compounds followed by 72 h incubation. Cell viability assay was performed according to the manufacturer’s instruction, using CellTiter GLO 3 D for 3 D cell culture (Promega); cell incubation was 5 min on the shaker followed by 25 min incubation in the dark. Plates were read using PE EnVision luminescence. The results for each of tested compounds are reported as growth percentages from two independent concentrations curves compared with the untreated control cells after drug exposure.
as §2, §3

Data set [3] deals with NCI-H358. As to the kind of experiment: BrdU proliferation assay, 3D cell culture. It counts as cell-based. Conditions: Homo sapiens, NCI-H358, 3D cell culture, ±SD, N = 2. How it is done:
as §4, §2, §3

Data set [4] relates to HCC827. Description: BrdU proliferation assay, 3D cell culture. The format is cell-based. The settings on record: Homo sapiens, HCC827, 3D cell culture, ±SD, N = 2. How it is done:
(§5) Cells were grown in 96 well Perfecta 3 D hanging drop plates 5000 cell/well for 4 days until spheres were formed (and checked under the microscope). After sphere formation cells were treated with compounds followed by 72 h incubation. Cell viability assay was performed according to the manufacturer’s instruction, using CellTiter GLO 3 D for 3 D cell culture (Promega); cell incubation was 5 min on the shaker followed by 25 min incubation in the dark. Plates were read using PE EnVision luminescence.
as §2
(§6) Calculation of IC50 data, curves and QC analysis is made by using Excel tools and GraphPadPrism software (La Jolla, CA), v. […] QC criteria parameters (Z', S:B, R2, HillSlope) were checked for every IC50 curve.

For data set [5], the system named is A549. As to the kind of experiment: Cell viability assay, 3D hanging drop cell culture (CellTiter GLO 3D). It counts as cell-based. Conditions: Homo sapiens; A549, 3D hanging drop cell culture, 72 h; ±SD, N = 2; read-out: IC50 antitumor activity A549 3D. How it is done:
(§7) Compounds are diluted 1:3. 500 nL (for 2 D cell culture) or 400 nL (for 3 D cell culture) of compound were transferred from mother plate to test plate by using Mosquito (TTP labtech). DMSO percentage in test concentrations was 0.5 − 1.0%. Starting concentration of the test compounds and standard compound doxorubicin was 50 µM (2 D cell culture) or 100 µM (3 D cell culture).
as §5, §6

For data set [6], the system named is NCI-H358. The data set is described as above. The settings on record: Homo sapiens, read-out: IC50 antitumor activity NCI-H358 3D. The format is cell-based. How it is done:
as §7, §5, §6

Data set [7] deals with HCC827. Described as above. It counts as cell-based. The settings on record: Homo sapiens, read-out: IC50 antitumor activity HCC827 3D. How it is done:
as §7, §5, §6

Data set [8] has as its system A549. Description: MTS cell viability (cytotoxicity) assay, 2D cell culture. Conditions: Homo sapiens, A549, 2D cell culture, 72 h, ±SD, N = 2, read-out: IC50 antitumor activity A549 2D. The format is cell-based. How it is done:
as §7
as §1, with “The results for each of tested compounds are reported as growth percentages from two independent concentrations curves compared with the untreated control cells after drug exposure.” left out
as §6

Data set [9] relates to NCI-H358. The description is as above. The format is cell-based. The settings on record: Homo sapiens, read-out: IC50 antitumor activity NCI-H358 2D. How it is done:
as §7
as §1, with “The results for each of tested compounds are reported as growth percentages from two independent concentrations curves compared with the untreated control cells after drug exposure.” left out
as §6

For data set [10], the system named is HCC827. The description is as above. It counts as cell-based. Conditions: Homo sapiens, read-out: IC50 antitumor activity HCC827 2D. How it is done:
as §7
as §1, with “The results for each of tested compounds are reported as growth percentages from two independent concentrations curves compared with the untreated control cells after drug exposure.” left out
as §6

The test system of data set [11] is NCI-H358. Description: BrdU proliferation assay, 2D cell culture. Conditions: Homo sapiens, NCI-H358, 2D cell culture, ±SD, N = 2. It counts as cell-based. How it is done: as §1, with “The results for each of tested compounds are reported as growth percentages from two independent concentrations curves compared with the untreated control cells after drug exposure.” left out
as §2, §6

In data set [12] the test system is HCC827. Description: BrdU proliferation assay, 2D cell culture. It counts as cell-based. Conditions: Homo sapiens, HCC827, 2D cell culture, ±SD, N = 2. How it is done:
as §1, with “The results for each of tested compounds are reported as growth percentages from two independent concentrations curves compared with the untreated control cells after drug exposure.” left out
as §2, §6

[13] abbreviates: NCI-H358, 3D hanging drop cell culture, 72 h, ±SD, N = 2.
Setting [14] is: HCC827, 3D hanging drop cell culture, 72 h, ±SD, N = 2.
The mark [15] stands for this setting: NCI-H358, 2D cell culture, 72 h, MTS, ±SD, N = 2.
The mark [16] stands for this setting: HCC827, 2D cell culture, 72 h, MTS, ±SD, N = 2.

Where a name gives a salt, the structure may show the parent alone.

Regarding `c1ccc2c(-c3nc4ccc(C5=NCCCN5)cc4[nH]3)c[nH]c2c1` (as salt: chloride) [Compound 6e, 2-(1H-Indol-3-yl)-5(6)–(3,4,5,6-tetrahydropyrimidin-1-ium-2-yl)benzimidazole chloride], the melting point (commonly the temperature of the solid-liquid transition) was > 300 °C.

The compound `Cl.c1ccc(-c2nc3ccc(C4=NCCCN4)cc3s2)cc1` [Compound 5a, 2-Phenyl-6–(3,4,5,6-tetrahydropyrimidin-1-ium-2-yl)benzothiazole chloride] showed a melting point of 272 to 275 °C. The IC50 – broadly, the point on the concentration scale where inhibition reaches its midpoint – with A549 [1] is > 50000 nM. For the same compound, the IC50 in the data set on A549 [2] is > 100000 nM. In the data set with NCI-H358 [3], the IC50 is > 100000 nM. The IC50 in the data set on HCC827 [4] is > 100000 nM. In addition, in the data set with A549 [5], the IC50 is > 100000 nM. In addition, in the data set on NCI-H358 [6] (setting [13]), the IC50 was > 100000 nM. Also, in the data set on HCC827 [7] (setting [14]), the IC50 is > 100000 nM. Further, in the data set with A549 [8], the IC50 was > 50000 nM. Besides, the half-inhibitory concentration (IC50) in the data set on NCI-H358 [9] (setting [15]) was > 50000 nM. Moreover, the IC50 in the data set on HCC827 [10] (setting [16]) was > 50000 nM. Further, in the data set with NCI-H358 [11], the IC50 is > 50000 nM. Moreover, in the data set on HCC827 [12], the 50% inhibitory concentration (IC50) is > 50000 nM.

Turning to `Cl.c1ccc2c(-c3nc4ccc(C5=NCCCN5)cc4s3)c[nH]c2c1` [Compound 5f, 2-(1H-Indol-3-yl)-6–(3,4,5,6-tetrahydropyrimidin-1-ium-2-yl)benzothiazole chloride], the melting point is > 300 °C. In addition, the IC50 in the data set on A549 [1] was > 50000 nM. In addition, the IC50 in the data set with A549 [2] is > 100000 nM. Moreover, in the data set on NCI-H358 [3], the IC50 was > 100000 nM. Besides, the IC50 in the data set on HCC827 [4] was > 100000 nM. Further, the IC50 with A549 [5] is > 100000 nM. Also, the IC50 in the data set on NCI-H358 [6] (setting [13]) was > 100000 nM. In addition, the IC50 in the data set on HCC827 [7] (setting [14]) is > 100000 nM. Further, the IC50 in the data set with A549 [8] is > 50000 nM. Moreover, the IC50 in the data set on NCI-H358 [9] (setting [15]) was > 50000 nM. Further, in the data set with HCC827 [10] (setting [16]), the IC50 was > 50000 nM. Moreover, the IC50 in the data set on NCI-H358 [11] was > 50000 nM. In addition, the IC50 in the data set on HCC827 [12] is > 50000 nM.

Take `Cl.c1ccc2c(c1)cc(-c1nc3ccc(C4=NCCCN4)cc3s1)c1ccccc12` [Compound 5i, 2-(Phenanthrene-9-yl)-6–(3,4,5,6-tetrahydropyrimidin-1-ium-2-yl)benzothiazole chloride]: the melting point was in the range of 196 to 200 °C. Besides, the IC50 with A549 [1] is > 50000 nM. Further, the IC50 in the data set on A549 [2] was > 100000 nM. In addition, the IC50 in the data set on NCI-H358 [3] is > 100000 nM. In addition, the IC50 with HCC827 [4] was > 100000 nM. In addition, the IC50 in the data set on A549 [5] is > 100000 nM. Further, the IC50 in the data set with NCI-H358 [6] (NCI-H358, 72 h) was > 100000 nM. In the data set on HCC827 [7] (HCC827, 72 h), the 50% inhibitory concentration (IC50) is > 100000 nM. Moreover, the IC50 in the data set on A549 [8] is > 50000 nM. Further, the IC50 with NCI-H358 [9] (NCI-H358, 72 h) is > 50000 nM. Also, in the data set on HCC827 [10] (HCC827, 72 h), the IC50 is > 50000 nM. The IC50 in the data set with NCI-H358 [11] was > 50000 nM. Also, the IC50 with HCC827 [12] was > 50000 nM.

As for `COc1cccc2c1C(=O)c1c(O)c3c(c(O)c1C2=O)C[C@@](O)(C(=O)CO)C[C@@H]3O[C@H]1C[C@H](N)[C@H](O)[C@H](C)O1` [Doxorubicin, reference compound], the IC50 in the data set on A549 [1] stood at 60 ± 10 nM; in the data set on A549 [2], 390 ± 20 nM; with NCI-H358 [3], 340 ± 360 nM; in the data set on HCC827 [4] it was 1030 ± 710 nM; in the data set with A549 [5], 5000 ± 260 nM; in the data set with NCI-H358 [6] (setting [13]) it was 250 ± 30 nM. The IC50 with HCC827 [7] (setting [14]) was 780 ± 80 nM; with A549 [8], 2000 ± 230 nM; in the data set on NCI-H358 [9] (setting [15]), 110 ± 10 nM; with HCC827 [10] (setting [16]) it was 390 ± 50 nM; with NCI-H358 [11] it was 40 nM; in the data set on HCC827 [12] it was 20 nM.

Take `CN[C@@H]1C[C@H]2O[C@@](C)([C@@H]1OC)n1c3ccccc3c3c4c(c5c6ccccc6n2c5c31)C(=O)NC4` [Staurosporine, reference compound]: the IC50 came to 40 ± 10 nM in the data set with HCC827 [4], 150 ± 10 nM in the data set on HCC827 [10] (setting [16]) and 60 ± 10 nM with HCC827 [12].

For `COc1cc2c(Nc3ccc(Br)cc3F)ncnc2cc1OCC1CCN(C)CC1` [Vandetanib, reference compound], the IC50 is > 25000 nM with A549 [1]; 1250 ± 2820 nM with A549 [2]; 1910 ± 90 nM with NCI-H358 [3]; 870 ± 1150 nM in the data set with HCC827 [4]; > 50000 nM in the data set on A549 [5]; 300 ± 20 nM in the data set with NCI-H358 [6] (setting [13]). In addition, the IC50 with HCC827 [7] (setting [14]) is 2000 ± 110 nM; with A549 [8] it was > 25000 nM; in the data set on NCI-H358 [9] (setting [15]) it was 3000 ± 850 nM; in the data set on HCC827 [10] (setting [16]) it was 810 ± 50 nM; in the data set on NCI-H358 [11], 1000 ± 280 nM; with HCC827 [12], 2820 ± 1980 nM.
